Laboratory results as given in US20080090805A1, “CB-1 MODULATING COMPOUNDS AND THEIR USE” (ACADIA PHARMACEUTICALS INC., priority 2005, published 2008).

Each molecule was assayed against CB1 (mutant) (Homo sapiens, UniProt P21554) (assay: R-SAT functional receptor assay, CB1 (mutant, truncated after amino acid 417)). Conditions: Appendix A; R-SAT CB1; receptor form (mutant or wild-type) not stated.
Type: cell-based

CB1 (mutant), sequence (P21554 1-417, change not shown): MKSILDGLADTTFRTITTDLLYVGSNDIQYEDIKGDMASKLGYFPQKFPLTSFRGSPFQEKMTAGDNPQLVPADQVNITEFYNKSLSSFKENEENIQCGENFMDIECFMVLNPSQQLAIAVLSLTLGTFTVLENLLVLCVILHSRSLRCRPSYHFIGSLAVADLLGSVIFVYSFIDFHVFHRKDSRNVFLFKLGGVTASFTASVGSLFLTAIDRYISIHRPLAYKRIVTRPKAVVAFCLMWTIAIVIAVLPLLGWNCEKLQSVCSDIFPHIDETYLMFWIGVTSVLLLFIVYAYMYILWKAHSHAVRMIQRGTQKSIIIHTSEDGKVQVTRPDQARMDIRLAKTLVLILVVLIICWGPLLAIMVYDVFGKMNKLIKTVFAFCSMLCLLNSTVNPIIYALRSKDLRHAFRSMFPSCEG

pIC50	Compound
1.0	CON(C)C(=O)c1ccc2c(c1)N=C(c1ccccn1)c1ccccc1S2
8.7	CC(C)CNC(=O)c1ccc2c(c1)N=C(c1ccc(Cl)s1)c1ccccc1S2 [drawing 551]
1.0	COCCNC(=O)c1ccc2c(c1)N=C(c1ncccc1C)c1ccccc1S2

Same assay, conditions: Appendix A; R-SAT CB1; receptor form (mutant or wild-type) not stated; read-out: pIC50 (converted)

Compound	IC50 [nM]
O=C(NNCc1ccccc1)c1ccc2c(c1)N=C(c1ccc(Cl)cc1)c1ccccc1S2	200
Cc1cccnc1C1=Nc2cc(C(=O)NC3CCCCC3)ccc2Sc2ccccc21	501
O=C(NCc1ccco1)c1ccc2c(c1)N=C(c1ccc(Cl)s1)c1ccccc1S2 [drawing 621]	3.98
O=C(NCCCC(F)(F)F)c1ccc2c(c1)N=C(c1cccc(F)c1)c1ccccc1S2 [drawing 547]	1
O=C(NN1CCCCC1)c1ccc2c(c1)N=C(c1ccccc1Cl)c1ccccc1S2	501
CCCCNC(=O)c1ccc2c(c1)N=C(c1ccc(Cl)cc1)c1cc(Cl)ccc1S2 [drawing 556]	50.1
CCCCC(=O)c1ccc2c(c1)N=C(C1CCCCC1)c1ccccc1S2	50.1
CC(C)CNC(=O)c1ccc2c(c1)N=C(c1ccc(Cl)cc1Cl)c1ccccc1S2	79.4
N#Cc1ccc(C2=Nc3cc(C(=O)NCc4ccccn4)ccc3Sc3ccccc32)cc1	79.4
O=C(NCCC(F)(F)F)c1ccc2c(c1)N=C(c1cccc(Cl)c1)c1ccccc1S2 [drawing 549]	1.58
CCCC1=Nc2cc(C(=O)NCCc3ccc(OC)c(OC)c3)ccc2Sc2ccccc21	31.6
CCCCN(C)C(=O)c1ccc2c(c1)N=C(c1ccccn1)c1ccccc1S2	1000
O=C(NCc1ccc(Cl)cc1Cl)c1ccc2c(c1)N=C(C1CCCCC1)c1ccccc1S2	31.6
CCCC1=Nc2cc(C(=O)NCC3CCCN3CC)ccc2Sc2ccccc21 (stereo not drawn)	1580
CCCC1=Nc2cc(C(=O)N3CCC(C(=O)OCC)CC3)ccc2Sc2ccccc21	200
O=C(NCc1ccccc1Br)c1ccc2c(c1)N=C(c1ccccc1F)c1ccccc1S2 [drawing 602]	50.1
O=C(NCc1ccc(Cl)cc1Cl)c1ccc2c(c1)N=C(c1ccccc1F)c1ccccc1S2 [drawing 568]	50.1

Further lines, results first:

IC50 [nM]	Compound
6.31	CCCCNC(=O)c1ccc2c(c1)N=C(N1CCCCC1)c1ccccc1S2 [drawing 683]
25.1	O=C(NCc1ccccc1Cl)c1ccc2c(c1)N=C(N1CCCCC1)c1ccccc1S2 [drawing 1013]
15.8	O=C(NN1CCCCCC1)c1ccc2c(c1)N=C(c1ccc(Cl)cc1F)c1ccccc1S2 [drawing 867]
6.31	O=C(NCCc1ccc(Cl)cc1)c1ccc2c(c1)N=C(c1ccc(F)cc1)c1ccccc1S2 [drawing 673]
39.8	CCN(CCNC(=O)c1ccc2c(c1)N=C(c1ccccc1F)c1ccccc1S2)c1ccccc1 [drawing 1117]
79.4	O=C(NCc1ccncc1)c1ccc2c(c1)N=C(c1ccc(F)cc1)c1ccccc1S2 [drawing 716]
39.8	O=C(NCCc1ccc(Cl)cc1)c1ccc2c(c1)N=C(N1CCC(F)CC1)c1ccccc1S2 [drawing 1119]
12.6	CCCNC(=O)c1ccc2c(c1)N=C(c1ccc(F)cc1)c1ccccc1S2 [drawing 841]
100	O=C(NNC(=O)c1ccc2c(c1)N=C(c1ccc(F)cc1)c1ccccc1S2)c1ccccc1 [drawing 764]
31.6	CC(C)CCNC(=O)c1ccc2c(c1)N=C(c1ccccc1Cl)c1ccccc1S2 [drawing 1053]
25.1	O=C(NCc1cccnc1)c1ccc2c(c1)N=C(c1ccccc1F)c1ccccc1S2 [drawing 1035]
6.31	O=C(NC1CCC(F)(F)CC1)c1ccc2c(c1)N=C(c1cccc(F)c1)c1ccccc1S2 [drawing 659]
25.1	O=C(NN1CCCCC1)c1ccc2c(c1)N=C(c1ccc(Cl)c(Cl)c1)c1ccccc1S2 [drawing 989]
63.1	O=C(NCCc1ccc(Cl)cc1)c1ccc2c(c1)N=C(N1CCC(F)(F)CC1)c1ccccc1S2 [drawing 628]
15.8	O=C(NCc1cccnc1)c1ccc2c(c1)N=C(c1ccc(F)cc1)c1ccccc1S2 [drawing 931]

Same assay, conditions: Appendix A; R-SAT CB1; receptor form not stated; relative to SR141716 (100%); read-out: % Inhibition

Compound	Emax [%]
O=C(NNCc1ccccc1)c1ccc2c(c1)N=C(c1ccc(Cl)cc1)c1ccccc1S2	66
Cc1cccnc1C1=Nc2cc(C(=O)NC3CCCCC3)ccc2Sc2ccccc21	61
O=C(NCc1ccco1)c1ccc2c(c1)N=C(c1ccc(Cl)s1)c1ccccc1S2 [drawing 621]	118
O=C(NCCCC(F)(F)F)c1ccc2c(c1)N=C(c1cccc(F)c1)c1ccccc1S2 [drawing 547]	100
O=C(NN1CCCCC1)c1ccc2c(c1)N=C(c1ccccc1Cl)c1ccccc1S2	45
CCCCNC(=O)c1ccc2c(c1)N=C(c1ccc(Cl)cc1)c1cc(Cl)ccc1S2 [drawing 556]	112
CCCCC(=O)c1ccc2c(c1)N=C(C1CCCCC1)c1ccccc1S2	37
CON(C)C(=O)c1ccc2c(c1)N=C(c1ccccn1)c1ccccc1S2	8
CC(C)CNC(=O)c1ccc2c(c1)N=C(c1ccc(Cl)cc1Cl)c1ccccc1S2	87
N#Cc1ccc(C2=Nc3cc(C(=O)NCc4ccccn4)ccc3Sc3ccccc32)cc1	99
O=C(NCCC(F)(F)F)c1ccc2c(c1)N=C(c1cccc(Cl)c1)c1ccccc1S2 [drawing 549]	96
CCCC1=Nc2cc(C(=O)NCCc3ccc(OC)c(OC)c3)ccc2Sc2ccccc21	105
CCCCN(C)C(=O)c1ccc2c(c1)N=C(c1ccccn1)c1ccccc1S2	57
O=C(NCc1ccc(Cl)cc1Cl)c1ccc2c(c1)N=C(C1CCCCC1)c1ccccc1S2	90
CCCC1=Nc2cc(C(=O)NCC3CCCN3CC)ccc2Sc2ccccc21 (stereo not drawn)	133
CCCC1=Nc2cc(C(=O)N3CCC(C(=O)OCC)CC3)ccc2Sc2ccccc21	108
O=C(NCc1ccccc1Br)c1ccc2c(c1)N=C(c1ccccc1F)c1ccccc1S2 [drawing 602]	65
O=C(NCc1ccc(Cl)cc1Cl)c1ccc2c(c1)N=C(c1ccccc1F)c1ccccc1S2 [drawing 568]	85
COCCNC(=O)c1ccc2c(c1)N=C(c1ncccc1C)c1ccccc1S2	-6

Second part, the molecule after the results:

Emax [%]	Compound
99	CCCCNC(=O)c1ccc2c(c1)N=C(N1CCCCC1)c1ccccc1S2 [drawing 683]
117	O=C(NCc1ccccc1Cl)c1ccc2c(c1)N=C(N1CCCCC1)c1ccccc1S2 [drawing 1013]
102	O=C(NN1CCCCCC1)c1ccc2c(c1)N=C(c1ccc(Cl)cc1F)c1ccccc1S2 [drawing 867]
107	O=C(NCCc1ccc(Cl)cc1)c1ccc2c(c1)N=C(c1ccc(F)cc1)c1ccccc1S2 [drawing 673]
100	CCN(CCNC(=O)c1ccc2c(c1)N=C(c1ccccc1F)c1ccccc1S2)c1ccccc1 [drawing 1117]
101	O=C(NCc1ccncc1)c1ccc2c(c1)N=C(c1ccc(F)cc1)c1ccccc1S2 [drawing 716]
103	O=C(NCCc1ccc(Cl)cc1)c1ccc2c(c1)N=C(N1CCC(F)CC1)c1ccccc1S2 [drawing 1119]
95	CCCNC(=O)c1ccc2c(c1)N=C(c1ccc(F)cc1)c1ccccc1S2 [drawing 841]
83	O=C(NNC(=O)c1ccc2c(c1)N=C(c1ccc(F)cc1)c1ccccc1S2)c1ccccc1 [drawing 764]
105	CC(C)CCNC(=O)c1ccc2c(c1)N=C(c1ccccc1Cl)c1ccccc1S2 [drawing 1053]
114	O=C(NCc1cccnc1)c1ccc2c(c1)N=C(c1ccccc1F)c1ccccc1S2 [drawing 1035]
77	O=C(NC1CCC(F)(F)CC1)c1ccc2c(c1)N=C(c1cccc(F)c1)c1ccccc1S2 [drawing 659]
105	O=C(NN1CCCCC1)c1ccc2c(c1)N=C(c1ccc(Cl)c(Cl)c1)c1ccccc1S2 [drawing 989]
99	O=C(NCCc1ccc(Cl)cc1)c1ccc2c(c1)N=C(N1CCC(F)(F)CC1)c1ccccc1S2 [drawing 628]
123	O=C(NCc1cccnc1)c1ccc2c(c1)N=C(c1ccc(F)cc1)c1ccccc1S2 [drawing 931]
